Source: patent US6596712B2, “Treatment of carcinomas using squalamine in combination with other anti-cancer agents or modalities” (Genaera Corporation, priority 1996, dated 2003)

Tests used:
[1] = tested on: VEGF-stimulated bovine retinal endothelial cells; test: Growth of VEGF-stimulated endothelial cells; format: cell-based; conditions: Bos taurus, Endothelial cell, 48 hours, VEGF 20 ng/ml
Experimental: (§1) In conducting this in vitro analysis, the following cell lines were tested: (a) bovine retinal endothelial cells; (b) 9L and C6 rat glioma cells; (c) human H80 glioma cells; and (d) VX2 rabbit carcinoma cells (the same type as the tumors implanted in the rabbit corneal micropocket assay test described above). The endothelial mitogen which was used in this analysis was VEGF at a concentration of 20 ng/ml.
(§2) The cells were allowed to attach overnight to tissue culture plates containing an optimized growth media. Following attachment, the cells were exposed to solvent only or 5 to increasing concentrations of squalamine (0, 10, 20, 30, 60, and 90 μg squalamine/ml). Cell growth was counted daily for three days using a Coulter Counter. A total of 10,000 cells per well were plated and each experimental concentration was tested in quadruplicate. The results were then averaged. The bovine retinal endothelial cells were grown and treated in an identical manner to the other cell lines, except that the growth of these cells was measured after the addition of 20 ng/ml of human recombinant VEGF to the cells prior to the squalamine treatment.
(§3) Percentage endothelial cell growth inhibition (%I) was determined by the following equation: [formula]

rabbit NHE3 = target: T1, rabbit NHE3 (Oryctolagus cuniculus, UniProt P26432); test: NHE activity, rabbit NHE3; format: cell-based; conditions: for decrease of Vmax of rabbit NHE3: 1 hour pretreatment
T1 construct: expressed in transfected cells
T1 sequence (P26432 30-832): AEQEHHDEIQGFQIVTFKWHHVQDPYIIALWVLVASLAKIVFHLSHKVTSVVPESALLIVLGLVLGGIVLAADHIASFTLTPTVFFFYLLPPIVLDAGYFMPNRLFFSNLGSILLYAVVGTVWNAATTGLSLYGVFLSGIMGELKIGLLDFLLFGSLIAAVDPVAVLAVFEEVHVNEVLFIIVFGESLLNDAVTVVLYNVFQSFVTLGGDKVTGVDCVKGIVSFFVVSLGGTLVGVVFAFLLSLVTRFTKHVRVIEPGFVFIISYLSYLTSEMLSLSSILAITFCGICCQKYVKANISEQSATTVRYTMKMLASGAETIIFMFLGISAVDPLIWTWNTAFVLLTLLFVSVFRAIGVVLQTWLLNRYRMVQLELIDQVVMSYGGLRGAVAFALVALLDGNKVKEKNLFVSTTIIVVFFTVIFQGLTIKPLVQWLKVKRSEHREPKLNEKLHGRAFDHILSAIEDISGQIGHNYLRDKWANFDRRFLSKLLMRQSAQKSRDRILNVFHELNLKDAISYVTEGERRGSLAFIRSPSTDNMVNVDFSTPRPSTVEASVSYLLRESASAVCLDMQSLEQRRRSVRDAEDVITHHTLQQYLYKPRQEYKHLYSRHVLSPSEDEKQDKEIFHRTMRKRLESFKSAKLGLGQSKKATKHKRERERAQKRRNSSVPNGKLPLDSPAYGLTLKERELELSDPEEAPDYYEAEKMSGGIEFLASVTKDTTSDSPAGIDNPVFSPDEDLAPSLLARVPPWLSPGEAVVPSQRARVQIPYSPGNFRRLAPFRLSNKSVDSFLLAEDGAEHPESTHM

rabbit NHE1 = target: T2, rabbit NHE1 (Oryctolagus cuniculus, UniProt P23791); test: NHE activity, rabbit NHE1; format: cell-based; conditions: similar tests
T2 construct: expressed in transfected cells
T2 sequence (P23791 whole entry): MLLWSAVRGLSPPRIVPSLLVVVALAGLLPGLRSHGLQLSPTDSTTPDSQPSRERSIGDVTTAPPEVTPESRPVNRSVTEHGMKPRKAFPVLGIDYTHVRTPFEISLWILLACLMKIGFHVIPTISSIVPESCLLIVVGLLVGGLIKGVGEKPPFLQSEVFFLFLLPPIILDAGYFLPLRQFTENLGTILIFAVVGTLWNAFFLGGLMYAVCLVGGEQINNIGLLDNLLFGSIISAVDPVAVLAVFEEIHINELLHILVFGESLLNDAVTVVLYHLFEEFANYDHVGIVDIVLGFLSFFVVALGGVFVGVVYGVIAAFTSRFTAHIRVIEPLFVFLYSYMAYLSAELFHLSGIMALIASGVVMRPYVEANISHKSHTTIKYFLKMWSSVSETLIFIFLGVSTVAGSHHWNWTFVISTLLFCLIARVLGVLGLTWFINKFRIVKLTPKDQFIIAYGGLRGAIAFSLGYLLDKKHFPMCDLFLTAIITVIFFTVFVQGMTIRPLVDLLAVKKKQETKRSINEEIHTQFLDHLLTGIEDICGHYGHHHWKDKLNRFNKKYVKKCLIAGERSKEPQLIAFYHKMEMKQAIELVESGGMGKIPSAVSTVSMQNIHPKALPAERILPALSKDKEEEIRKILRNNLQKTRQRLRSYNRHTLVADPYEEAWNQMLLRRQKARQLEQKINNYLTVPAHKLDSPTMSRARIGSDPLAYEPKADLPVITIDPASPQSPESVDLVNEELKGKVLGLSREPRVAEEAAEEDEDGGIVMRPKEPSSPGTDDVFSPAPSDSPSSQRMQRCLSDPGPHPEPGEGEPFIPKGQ

rabbit corneas = test: Inflammation in rabbit cornea without angiogenic stimulus; format: in vivo; conditions: pellets with 2%, 10% and 20% squalamine by weight
Experimental: In the rabbit corneal micropocket assay test, if the rabbit cornea becomes inflamed, this inflammation can lead to the formation of new blood vessels in the cornea. Such inflammation would skew the test results. Therefore, tests were conducted to determine whether squalamine, in and of itself, was responsible for any inflammatory response in the cornea. Several non-bioresorbable ethylene/vinyl acetate copolymer pellets were loaded with different concentrations of squalamine, namely, 2%, 10%, and 20% squalamine, by weight.

rat 9L glioma = test: Glioma lethality study, rat glioma implanted into rat brain; format: in vivo; conditions: 20 mg/kg/day i.p. from three days after implantation
Excerpt: FIG. 10 illustrates survival test results using squalamine in a glioma lethality study with a rat 9L glioma introduced into the brains of healthy rats;
In view of these test results, applicants tested squalamine in an animal model for brain cancer. To test the effect of squalamine on tumors located in the brain, small sections (1 mm3) of existing rat gliomas were taken from rat flanks where they were being maintained and were implanted into the rat brains in two groups of rats. Thus, in this model, the tumors were viable when placed in the rat brain. Three days after implantation, and after some vasculature had developed, treatment with 20 mg/kg/day of squalamine (i.p.) was initiated in one group of rats. The control animals (“vehicle control” in FIG. 10) were given the carrier vehicle only (no squalamine), and the other animals were treated with squalamine (“Squalamine” in FIG. 10).

[2] = tested on: human MX-1 breast cancer line; format: in vivo
Experimental: These documents each are entirely incorporated herein by reference. Squalamine was examined as adjunctive therapy following a single 200 mg/kg dose of cyclophosphamide. The cyclophosphamide was injected on day 14 following implantation of the tumor, at a time when the tumors measured 65-125 μl. […] The animals were then randomized to three treatment arms (each n=27): vehicle dosing only (Intralipid); squalamine given 10 mg/kg/day in Intralipid; and squalamine given 20 mg/kg/day in Intralipid for five days a week. Animals whose tumors exceeded 2 grams at any time during the experiment were euthanized. The experiment was continued for 90 days after initiating squalamine treatment to ensure that only mice experiencing long-term cures were still alive.

[3] = Tissue distribution after i.v. administration; format: in vivo, mouse; conditions: two hours after i.v. administration
Excerpt: In addition to these squalamine half-life tests, applicants have tested to ascertain the distribution of squalamine in a mouse after intravenous administration. FIG. 7 illustrates the distribution of squalamine in mouse tissue two hours after i.v. administration. […] The test results shown in FIG. 7 indicate good squalamine distribution. […] In treating brain tumors, it is believed that the squalamine acts on the endothelial cells in the brain, and in this way, it need not cross the brain/blood barrier

rabbit NHE2 = target: T3, rabbit NHE2 (Oryctolagus cuniculus, UniProt P50482); test: NHE activity, rabbit NHE2; format: cell-based; conditions: similar tests
T3 construct: expressed in transfected cells
T3 sequence (P50482 whole entry): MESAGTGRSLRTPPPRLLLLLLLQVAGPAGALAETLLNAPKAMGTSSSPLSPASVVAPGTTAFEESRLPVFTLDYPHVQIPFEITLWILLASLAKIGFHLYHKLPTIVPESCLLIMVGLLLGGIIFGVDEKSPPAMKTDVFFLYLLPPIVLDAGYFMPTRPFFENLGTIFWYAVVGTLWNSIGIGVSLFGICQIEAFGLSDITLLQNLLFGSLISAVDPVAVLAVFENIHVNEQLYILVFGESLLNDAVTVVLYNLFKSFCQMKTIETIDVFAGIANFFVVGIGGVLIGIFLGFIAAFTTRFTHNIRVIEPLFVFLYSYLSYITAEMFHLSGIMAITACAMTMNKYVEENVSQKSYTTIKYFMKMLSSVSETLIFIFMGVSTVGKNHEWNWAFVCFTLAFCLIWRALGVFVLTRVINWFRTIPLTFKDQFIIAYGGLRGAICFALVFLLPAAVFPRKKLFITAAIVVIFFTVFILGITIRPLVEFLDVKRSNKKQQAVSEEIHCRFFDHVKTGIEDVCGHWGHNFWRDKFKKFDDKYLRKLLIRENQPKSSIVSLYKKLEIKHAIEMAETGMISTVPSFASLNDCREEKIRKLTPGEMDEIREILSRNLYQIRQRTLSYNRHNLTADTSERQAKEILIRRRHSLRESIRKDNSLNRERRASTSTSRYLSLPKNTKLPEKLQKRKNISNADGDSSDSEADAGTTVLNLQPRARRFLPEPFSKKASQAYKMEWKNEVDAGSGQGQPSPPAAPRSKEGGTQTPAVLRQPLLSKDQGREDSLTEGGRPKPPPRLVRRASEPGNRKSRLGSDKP

[4] = tested on: bovine retinal endothelial cells not treated with VEGF; test: Growth of endothelial cells not treated with VEGF; format: cell-based; conditions: 24 and 48 hours; up to 30 μg/ml
Experimental: as §1
as §2, with “except that the growth of these cells was measured after the addition of 20 ng/ml of human recombinant VEGF to the cells prior to the squalamine treatment.” left out
as §3

**Q.** Which inhibition at 10 µg/mL ([1]; 10 μg/ml) does the source give for `CC(C)[C@@H](CC[C@@H](C)[C@H]1CC[C@H]2[C@@H]3[C@H](O)C[C@H]4C[C@@H](NCCCNCCCCN)CC[C@]4(C)[C@H]3CC[C@]12C)OS(=O)(=O)O` [Squalamine, squalamine] here?
**A.** The inhibition at 10 µg/mL was 38%.

**Q.** And the inhibition at 20 µg/mL ([1]; 20 μg/ml)?
**A.** The inhibition at 20 µg/mL was 57%.

**Q.** And the inhibition at 30 µg/mL ([1]; 30 μg/ml)?
**A.** The inhibition at 30 µg/mL was 83%.

**Q.** And the “time dependence of effect on Vmax” value (rabbit NHE3)?
**A.** The value was “maximum effect occurring at one hour exposure”.

**Q.** And the “decrease of Vmax of rabbit NHE3” value (rabbit NHE3; 1 μg squalamine/ml)?
**A.** Its value is 13%.

**Q.** And the “decrease of Vmax of rabbit NHE3” value (rabbit NHE3; 5 μg squalamine/ml)?
**A.** The value was 47%.

**Q.** What about the “decrease of Vmax of rabbit NHE3” value (rabbit NHE3; 7 μg squalamine/ml) of the same molecule?
**A.** The value was 57%.

**Q.** And the “reversibility of effect on Vmax” value (rabbit NHE3; after removing the cells from the medium)?
**A.** The value was “fully reversible within three hours”.

**Q.** And the “effect on rabbit NHE3” value (rabbit NHE3; similar tests)?
**A.** Its value is “inhibited”.

**Q.** What about the “effect on rabbit NHE1” value (rabbit NHE1) of the same molecule?
**A.** The value was “not affected”.

**Q.** What about the “inflammation in the cornea” value (rabbit corneas) of the same molecule?
**A.** Its value is “did not induce inflammation”.

**Q.** What about the “increase in mean survival time” value (rat 9L glioma) of the same molecule?
**A.** Its value is 38%.

**Q.** What about the mean survival time (rat 9L glioma) of the same molecule?
**A.** Its mean survival time is 24.9 days.

**Q.** What about the “rate of progression of the breast tumors” value ([2]; squalamine 10 mg/kg/day after single 200 mg/kg cyclophosphamide, all times examined) of the same molecule?
**A.** Its value is “significant (P<0.01) inhibition in the rate of progression of the breast tumors”.

**Q.** And the “progression of the breast tumors” value ([2]; squalamine 20 mg/kg/day after single 200 mg/kg cyclophosphamide, only at 30 days post-initiation)?
**A.** The value was “significant (P<0.05) delay in progression of the breast tumors”.

**Q.** And the “long-term cure rate vs cyclophosphamide alone” value ([2]; squalamine 20 mg/kg/day for five weeks after cyclophosphamide, 90 days)?
**A.** Its value is “doubled the long-term cure rate”.

**Q.** What about the “tolerability of high dose” value ([2]; squalamine 20 mg/kg/day, discontinued after five weeks) of the same molecule?
**A.** Its value is “animal weight loss and potential toxicity concerns”.

**Q.** And the “distribution in mouse tissue” value [3]?
**A.** The value was “most of the squalamine concentrating in the liver and the small intestine”.

**Q.** And the “squalamine in brain tissue” value [3]?
**A.** The value was “not much squalamine is present in brain tissue”.

**Q.** What about the “effect on rabbit NHE2” value (rabbit NHE2) of the same molecule?
**A.** The value was “not affected”.

**Q.** And the “cell proliferation by endothelial cells not treated with VEGF” value [4]?
**A.** Its value is “statistically unaffected”.
